# Values joined by “and” are separate entries in the source; they are usually repeats but may differ in a detail not shown here. Identical values can stand only once.
# Biological target: T1, Corticotropin-releasing factor receptor 1 (Homo sapiens, UniProt P34998)
# T1 sequence (P34998 whole entry): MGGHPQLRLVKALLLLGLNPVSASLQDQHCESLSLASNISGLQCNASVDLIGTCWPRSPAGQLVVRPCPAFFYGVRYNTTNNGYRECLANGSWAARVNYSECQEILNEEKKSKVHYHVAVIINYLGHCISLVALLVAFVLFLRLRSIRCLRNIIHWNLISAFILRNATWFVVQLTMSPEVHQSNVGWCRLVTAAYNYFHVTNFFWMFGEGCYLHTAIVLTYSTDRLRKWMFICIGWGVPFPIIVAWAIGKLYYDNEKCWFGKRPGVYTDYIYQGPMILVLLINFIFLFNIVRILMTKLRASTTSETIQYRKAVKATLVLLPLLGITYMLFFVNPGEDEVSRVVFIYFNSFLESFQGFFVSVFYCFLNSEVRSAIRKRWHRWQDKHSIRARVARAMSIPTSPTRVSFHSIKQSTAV
# Experiment: (§1) Homogeneous Time-Resolved Fluorescence Assay: Chinese hamster ovary (CHO) cells expressing either the human or rat recombinant CRF-1 or human CRF-2alpha (Chen et al, Proc Natl Acad Sci USA 90, 8967-8971, 1993; Liaw et al, Endocrinology 137, 72-77, 1996) are propagated in Dulbecco's modified Eagle medium supplemented with 10% foetal calf serum, non-essential amino acids, 100 U/ml penicillin, 100 mg/l streptomycin and 1 g/l geneticin. CHO cells expressing the rat CRF-2beta receptor (Wu et al, Endocrinology 148, 1675-1687, 2007) are propagated in HAM's-F12 Glutamax supplemented with 10% foetal calf serum, 100 IU/ml penicillin, 100 mg/l streptomycin, 600 ug/ml hygromycin, 10 ug/ml blasticidin and induced with 1 ug/ml of tetracyclin for 24 hours prior to experimentation. For cyclic AMP determinations the Homogeneous Time-Resolved Fluoresce (HTRF) CAMP dynamic 2 kit (Cisbio International, France) was used as per manufacturers' instructions.
# Format: cell-based
row,Compound,IC50
1,Cc1ncc(Cl)cc1C(=O)N[C@H]1CC[C@H](Cn2nc(CO)cc2C)CC1,665 nM
2,Cc1cc(CO)n(C[C@H]2CC[C@H](NC(=O)c3cc(Cl)cnc3C)CC2)n1,6960 nM
3,Cc1cc(C)n(C[C@H]2CC[C@H](NC(=O)c3cc(Cl)cnc3C)CC2)n1,88 nM and 262 nM
4,CCc1cc(CC)n(C[C@H]2CC[C@H](NC(=O)c3cc(Cl)cnc3C)CC2)n1,160 nM
5,Cc1cc(C)n(C[C@H]2CC[C@H](NC(=O)c3cc(C(F)(F)F)cnc3C)CC2)n1,634 nM
6,CCc1[nH]nc(NC[C@H]2CC[C@H](NC(=O)c3cc(Cl)cnc3C)CC2)c1C,134 nM
7,Cc1ncc(Cl)cc1C(=O)N[C@H]1CC[C@H](Cn2nc(-c3cccnc3)cc2C)CC1,142 nM
8,COc1ccc(-c2cc(C)n(C[C@H]3CC[C@H](NC(=O)c4cc(C(F)(F)F)ccc4Cl)CC3)n2)cc1,82 nM
9,Cc1cn(C[C@H]2CC[C@H](NC(=O)c3cc(C(F)(F)F)ccc3Cl)CC2)nc1C,167 nM
10,O=C(N[C@H]1CC[C@H](Cn2ncc3c2CCC3)CC1)c1cc(C(F)(F)F)ccc1Cl,170 nM
11,Cc1ncc(Cl)cc1C(=O)N[C@H]1CC[C@H](Cn2cc3c(n2)CCCC3)CC1,318 nM
12,COc1cc(C)nn1C[C@H]1CC[C@H](NC(=O)c2cc(C(F)(F)F)ccc2Cl)CC1,67 nM
13,O=C(N[C@H]1CC[C@H](Cn2cc(Cl)c(CO)n2)CC1)c1cc(C(F)(F)F)ccc1Cl,95 nM

# Other lines, results leading:
row,IC50,Compound
1,256 nM,Cc1ncc(Cl)cc1C(=O)N[C@H]1CC[C@H](Cn2nc(C)c(Cl)c2C)CC1
2,180 nM,Cc1ncc(Cl)cc1C(=O)N[C@H]1CC[C@@H](Cn2nc(-c3ccc(F)cc3)cc2C)CC1
3,132 nM,Cc1cnn(C[C@H]2CC[C@H](NC(=O)c3cc(C(F)(F)F)ccc3Cl)CC2)c1
4,59 nM,Cc1cc(-c2ccc3c(c2)OCO3)nn1C[C@H]1CC[C@H](NC(=O)c2cc(C(F)(F)F)ccc2Cl)CC1
5,35 nM,COc1ccc(-c2c(NC[C@H]3CC[C@H](NC(=O)c4cc(C(F)(F)F)ccc4Cl)CC3)n[nH]c2C)c(Cl)c1
6,22 nM,CCc1cc(C)nn1C[C@H]1CC[C@H](NC(=O)c2cc(C(F)(F)F)ccc2Cl)CC1
7,21 nM,CCc1cc(CC)n(C[C@H]2CC[C@H](NC(=O)c3cc(C(F)(F)F)ccc3Cl)CC2)n1

# Biological target: T2, Corticotropin-releasing factor receptor 2 (Homo sapiens, UniProt Q13324)
# T2 sequence (Q13324 whole entry): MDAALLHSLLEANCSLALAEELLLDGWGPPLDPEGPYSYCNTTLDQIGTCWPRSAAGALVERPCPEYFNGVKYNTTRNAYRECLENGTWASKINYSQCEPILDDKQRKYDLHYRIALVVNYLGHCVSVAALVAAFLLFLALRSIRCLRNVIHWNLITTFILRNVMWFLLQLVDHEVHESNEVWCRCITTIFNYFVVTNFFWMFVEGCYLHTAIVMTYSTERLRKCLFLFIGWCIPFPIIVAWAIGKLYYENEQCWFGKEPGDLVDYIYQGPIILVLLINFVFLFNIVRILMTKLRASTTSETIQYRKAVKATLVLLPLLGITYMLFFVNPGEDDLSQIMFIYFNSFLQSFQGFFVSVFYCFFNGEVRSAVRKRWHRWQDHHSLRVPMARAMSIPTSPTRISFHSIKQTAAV
# Experiment: as §1
# Format: cell-based
row,IC50 [nM],Compound
1,4880,CCc1[nH]nc(NC[C@H]2CC[C@H](NC(=O)c3cc(Cl)cnc3C)CC2)c1C
2,3740,Cc1ncc(Cl)cc1C(=O)N[C@H]1CC[C@H](Cn2nc(-c3cccnc3)cc2C)CC1
3,2030,CCc1cc(C)n(C[C@H]2CC[C@H](NC(=O)c3cc(C(F)(F)F)ccc3Cl)CC2)n1
4,4940,Cc1ncc(Cl)cc1C(=O)N[C@H]1CC[C@@H](Cn2nc(-c3ccccc3)cc2C)CC1
5,4630,Cc1ncc(Cl)cc1C(=O)N[C@H]1CC[C@@H](Cn2nc(-c3ccc(F)cc3)cc2C)CC1
6,4850,O=C(N[C@H]1CC[C@H](Cn2cc(Cl)c(CO)n2)CC1)c1cc(C(F)(F)F)ccc1Cl
